{"source": "patent US20180037568A1", "about": "“MODULATORS OF METHYL MODIFYING ENZYMES, COMPOSITIONS AND USES THEREOF” (Constellation Pharmaceuticals, Inc., priority 2015, published 2018)", "biological_target": "T1, PRC2 containing wt EZH2 (Homo sapiens, UniProt Q15910)", "T1 construct": "made in house", "T1 sequence (Q15910 whole entry)": "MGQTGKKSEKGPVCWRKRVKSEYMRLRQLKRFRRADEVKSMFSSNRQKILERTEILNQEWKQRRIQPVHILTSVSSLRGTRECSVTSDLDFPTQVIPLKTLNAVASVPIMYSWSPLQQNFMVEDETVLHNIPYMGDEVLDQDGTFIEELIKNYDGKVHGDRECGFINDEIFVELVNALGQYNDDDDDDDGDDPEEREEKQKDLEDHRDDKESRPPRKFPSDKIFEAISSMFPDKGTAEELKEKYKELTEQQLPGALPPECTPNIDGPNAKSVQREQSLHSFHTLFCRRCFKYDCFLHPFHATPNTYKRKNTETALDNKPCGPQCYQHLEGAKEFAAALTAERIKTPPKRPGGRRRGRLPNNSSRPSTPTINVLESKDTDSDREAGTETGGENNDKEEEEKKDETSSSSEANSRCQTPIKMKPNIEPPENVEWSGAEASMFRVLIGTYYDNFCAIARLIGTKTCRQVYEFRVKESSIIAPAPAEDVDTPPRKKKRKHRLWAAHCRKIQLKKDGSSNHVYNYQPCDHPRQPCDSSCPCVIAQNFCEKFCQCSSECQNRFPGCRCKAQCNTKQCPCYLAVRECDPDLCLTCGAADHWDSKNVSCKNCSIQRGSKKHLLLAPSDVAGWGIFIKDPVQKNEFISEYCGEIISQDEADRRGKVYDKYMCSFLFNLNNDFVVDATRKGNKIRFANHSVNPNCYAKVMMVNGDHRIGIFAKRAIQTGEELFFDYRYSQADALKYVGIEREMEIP", "T1 sequence (O75530 whole entry partner)": "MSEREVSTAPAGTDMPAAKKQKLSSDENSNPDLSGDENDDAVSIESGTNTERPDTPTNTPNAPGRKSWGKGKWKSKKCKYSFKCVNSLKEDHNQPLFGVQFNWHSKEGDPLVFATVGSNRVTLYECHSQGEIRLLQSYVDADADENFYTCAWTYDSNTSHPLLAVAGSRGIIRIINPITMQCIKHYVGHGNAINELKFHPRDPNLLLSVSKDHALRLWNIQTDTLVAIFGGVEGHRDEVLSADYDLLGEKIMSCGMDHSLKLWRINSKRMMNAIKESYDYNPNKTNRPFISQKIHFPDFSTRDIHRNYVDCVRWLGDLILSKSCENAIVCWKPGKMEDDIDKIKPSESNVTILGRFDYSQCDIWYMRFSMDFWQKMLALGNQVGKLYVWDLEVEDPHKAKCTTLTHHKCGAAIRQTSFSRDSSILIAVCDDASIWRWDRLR", "T1 sequence (Q15022 whole entry partner)": "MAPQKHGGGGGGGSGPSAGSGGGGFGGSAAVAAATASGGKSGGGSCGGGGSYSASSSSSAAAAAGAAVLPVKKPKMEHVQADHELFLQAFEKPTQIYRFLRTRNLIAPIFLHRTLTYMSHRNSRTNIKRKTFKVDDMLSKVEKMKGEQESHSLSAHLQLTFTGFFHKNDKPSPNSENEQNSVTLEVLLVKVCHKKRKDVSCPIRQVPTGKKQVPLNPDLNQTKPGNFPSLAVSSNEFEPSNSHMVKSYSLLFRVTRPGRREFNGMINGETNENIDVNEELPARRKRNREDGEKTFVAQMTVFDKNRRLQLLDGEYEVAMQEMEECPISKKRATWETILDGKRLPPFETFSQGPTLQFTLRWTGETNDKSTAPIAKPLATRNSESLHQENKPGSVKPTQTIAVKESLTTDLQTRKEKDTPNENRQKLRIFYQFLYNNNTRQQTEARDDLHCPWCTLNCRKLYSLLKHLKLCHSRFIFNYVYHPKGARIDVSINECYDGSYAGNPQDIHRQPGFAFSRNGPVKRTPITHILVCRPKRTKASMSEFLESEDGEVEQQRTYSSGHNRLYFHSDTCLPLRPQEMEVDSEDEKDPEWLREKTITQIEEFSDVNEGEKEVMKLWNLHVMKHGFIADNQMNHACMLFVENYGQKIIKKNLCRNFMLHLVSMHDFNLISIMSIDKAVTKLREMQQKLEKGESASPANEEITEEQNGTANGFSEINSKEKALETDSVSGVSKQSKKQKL", "T1 sequence (Q09028 whole entry partner)": "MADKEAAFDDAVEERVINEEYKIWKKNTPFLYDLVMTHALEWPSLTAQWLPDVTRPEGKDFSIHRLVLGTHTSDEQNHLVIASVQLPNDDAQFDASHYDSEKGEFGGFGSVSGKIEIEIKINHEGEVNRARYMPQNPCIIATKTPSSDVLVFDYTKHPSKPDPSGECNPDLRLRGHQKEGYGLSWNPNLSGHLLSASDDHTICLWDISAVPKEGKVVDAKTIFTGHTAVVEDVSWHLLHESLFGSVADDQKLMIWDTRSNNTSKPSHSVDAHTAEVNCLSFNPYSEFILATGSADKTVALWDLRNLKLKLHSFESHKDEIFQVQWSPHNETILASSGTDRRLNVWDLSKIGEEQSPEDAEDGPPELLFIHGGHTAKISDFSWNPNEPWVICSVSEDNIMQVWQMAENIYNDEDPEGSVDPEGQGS", "T1 sequence (Q6ZN18 whole entry partner)": "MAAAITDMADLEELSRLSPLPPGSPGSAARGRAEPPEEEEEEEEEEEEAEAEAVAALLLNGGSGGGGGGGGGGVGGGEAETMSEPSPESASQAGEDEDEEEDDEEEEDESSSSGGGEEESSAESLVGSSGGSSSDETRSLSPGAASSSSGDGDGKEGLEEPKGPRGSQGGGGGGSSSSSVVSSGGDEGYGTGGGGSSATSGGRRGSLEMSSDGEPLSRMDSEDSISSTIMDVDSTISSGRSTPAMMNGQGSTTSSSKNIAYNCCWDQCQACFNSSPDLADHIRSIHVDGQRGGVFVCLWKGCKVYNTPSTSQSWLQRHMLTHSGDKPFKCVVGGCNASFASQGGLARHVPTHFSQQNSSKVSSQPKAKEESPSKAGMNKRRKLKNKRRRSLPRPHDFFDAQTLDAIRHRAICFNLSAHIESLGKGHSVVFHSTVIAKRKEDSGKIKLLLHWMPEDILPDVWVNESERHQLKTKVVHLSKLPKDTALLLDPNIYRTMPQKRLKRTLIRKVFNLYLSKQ", "experiment": "EZH2 pep BSA Brij 4.0 LowE (IC50): 3H-SAM incorporation into biotinylated H3 peptide", "type": "biochemical", "protocol": "EZH2 Pep BSA Brij 4.0 LowE (IC50):\nCompound potencies were assessed through incorporation of ^3H-SAM into a biotinylated H3 peptide. Specifically, PRC2 containing wt EZH2 (20 pM), (pentameric complexes prepared in-house) was pre-incubated with ^3H-SAM (0.9 μM), 2 μM H3K27me3 activating peptide (H2N-RKQLATKAAR(Kme3)SAPATGGVKKP-amide) and compounds (as 10 point duplicate dose response titrations in DMSO, final assay 0.8% DMSO (v/v)) for 120 min in 50 mM Tris (pH 8.5), 1 mM DTT, 0.07 mM Brij-35, 0.1% BSA, and 0.8% DMSO in a total volume of 12.5 μl. Reaction was initiated with biotinylated H3 substrate peptide (H2N-RKQLATKAAR(Kme1)SAPATGGVKKP-NTPEGBiot) as a 2 μM stock in 12.5 μl of buffer and allowed to react at room temperature for 5 h. Quenching was accomplished by addition of 20 μl of STOP solution (50 mM Tris (pH 8.5), 200 mM EDTA, 2 mM SAH). 35 μl of the quenched solution was transferred to Streptavidin Flashplates, incubated overnight, washed, and read in a TopCount Reader (Perkin Elmer). IC50s were calculated relative to fully active and no enzyme control wells using non-linear least square four parameter fits.", "key": {"[1]": {"settings": "EZH2 pep BSA Brij 4.0 LowE (IC50), 20 pM PRC2 wt EZH2, 0.9 μM 3H-SAM, biotinylated H3 peptide substrate, 2 μM H3K27me3 activating peptide"}, "[2]": {"settings": "20 pM PRC2 wt EZH2, 0.9 μM 3H-SAM, biotinylated H3 peptide substrate, 2 μM H3K27me3 activating peptide; read-out: EZH2 pep BSA Brij 4.0 LowE (IC50)"}, "[3]": {"settings": "read-out: EZH2 pep BSA Brij 4.0 LowE (IC50); 20 pM PRC2 wt EZH2, 0.9 μM 3H-SAM, biotinylated H3 peptide substrate, 2 μM H3K27me3 activating peptide"}}, "note": "Where two headings read alike, the source gives them in different places."}
{"smiles": "Cc1cc(C)c(CNC(=O)c2c(C)n(C(C)C3CCN(CC(C)(F)F)C(C)C3)c3ccccc23)c(=O)[nH]1", "note": "(stereo not shown) [Compound 48]", "values": [{"measurement": "IC50", "setting": "[1]", "value": "100 to 1000", "unit": "nM"}]}
{"smiles": "Cc1cc(C)c(CNC(=O)c2c(C)n(C(C)C3CCN(CC(C)(F)F)C(C)C3)c3ccccc23)c(=O)[nH]1", "note": "(stereo not shown) [Compound 49]", "values": [{"measurement": "IC50", "setting": "[1]", "value": "100 to 1000", "unit": "nM"}]}
{"smiles": "COc1cc(C)[nH]c(=O)c1CNC(=O)c1c(C)n(C(C)C2CCNC(c3ccccc3F)C2)c2ccccc12", "note": "(stereo not shown) [Compound 50]", "values": [{"measurement": "IC50", "setting": "[1]", "value": "< 100", "unit": "nM"}]}
{"smiles": "COc1cc(C)[nH]c(=O)c1CNC(=O)c1c(C)n(C(C)C2CCNC(c3cccc(F)c3)C2)c2ccccc12", "note": "(stereo not shown) [Compound 51]", "values": [{"measurement": "IC50", "setting": "[2]", "value": "< 100", "unit": "nM"}]}
{"smiles": "Cc1cc(C)c(CNC(=O)c2c(C)n(C(C)C3CCNC(c4cccc(F)c4)C3)c3ccccc23)c(=O)[nH]1", "note": "(stereo not shown) [Compound 52]", "values": [{"measurement": "IC50", "setting": "[2]", "value": "< 100", "unit": "nM"}]}
{"smiles": "Cc1cc(C)c(CNC(=O)c2c(C)n(C(C)C3CCNC(c4cccc(F)c4)C3)c3ccccc23)c(=O)[nH]1", "note": "(stereo not shown) [Compound 53]", "values": [{"measurement": "IC50", "setting": "[2]", "value": "< 100", "unit": "nM"}]}
{"smiles": "CCC1CC(C(C)n2c(C)c(C(=O)NCc3c(OC)cc(C)[nH]c3=O)c3ccccc32)CCN1CC(F)F", "note": "(stereo not shown) [Compound 54]", "values": [{"measurement": "IC50", "setting": "[1]", "value": "< 100", "unit": "nM"}]}
{"smiles": "COc1cc(C)[nH]c(=O)c1CNC(=O)c1c(C)n(C(C)C2CCN(C)C(c3cccc(F)c3)C2)c2ccccc12", "note": "(stereo not shown) [Compound 55]", "values": [{"measurement": "IC50", "setting": "[2]", "value": "< 100", "unit": "nM"}]}
{"smiles": "Cc1cc(C)c(CNC(=O)c2c(C)n(C(C)C3CCN(C)C(c4cccc(F)c4)C3)c3ccccc23)c(=O)[nH]1", "note": "(stereo not shown) [Compound 56]", "values": [{"measurement": "IC50", "setting": "[2]", "value": "< 100", "unit": "nM"}]}
{"smiles": "COc1cc(C)[nH]c(=O)c1CNC(=O)c1c(C)n(C(C)C2CCN(C)C(c3cccc(F)c3)C2)c2ccccc12", "note": "(stereo not shown) [Compound 57]", "values": [{"measurement": "IC50", "setting": "[2]", "value": "< 100", "unit": "nM"}]}
{"smiles": "Cc1cc(C)c(CNC(=O)c2c(C)n(C(C)C3CCN(CC(C)(F)F)C(C)C3)c3ccccc23)c(=O)[nH]1", "note": "(stereo not shown) [Compound 58]", "values": [{"measurement": "IC50", "setting": "[1]", "value": "< 100", "unit": "nM"}]}
{"smiles": "CCC1CC(C(C)n2c(C)c(C(=O)NCc3c(OC)cc(C)[nH]c3=O)c3ccccc32)CCN1CC(F)F", "note": "(stereo not shown) [Compound 59]", "values": [{"measurement": "IC50", "setting": "[3]", "value": "< 100", "unit": "nM"}]}
{"smiles": "CCC1CC(C(C)n2c(C)c(C(=O)NCc3c(OC)cc(C)[nH]c3=O)c3ccccc32)CCN1CC(F)F", "note": "(stereo not shown) [Compound 60]", "values": [{"measurement": "IC50", "setting": "[3]", "value": "< 100", "unit": "nM"}]}
{"smiles": "Cc1cc(C)c(CNC(=O)c2c(C)n(C(C)C3CCN(C)C(c4cccc(F)c4)C3)c3ccccc23)c(=O)[nH]1", "note": "(stereo not shown) [Compound 61]", "values": [{"measurement": "IC50", "setting": "[2]", "value": "< 100", "unit": "nM"}]}
{"smiles": "CCC1CC(C(C)n2c(C)c(C(=O)NCc3c(OC)cc(C)[nH]c3=O)c3ccccc32)CCN1CC(F)F", "note": "(stereo not shown) [Compound 62]", "values": [{"measurement": "IC50", "setting": "[3]", "value": "< 100", "unit": "nM"}]}
{"smiles": "CCC1CC(C(C)n2c(C)c(C(=O)NCc3c(OC)cc(C)[nH]c3=O)c3ccccc32)CCN1CC(F)F", "note": "(stereo not shown) [Compound 63]", "values": [{"measurement": "IC50", "setting": "[3]", "value": "< 100", "unit": "nM"}]}
{"smiles": "COc1cc(C)[nH]c(=O)c1CNC(=O)c1c(C)n(C(C)C2CCN(CC(C)(F)F)C(C)C2)c2ccccc12", "note": "(stereo not shown) [Compound 64]", "values": [{"measurement": "IC50", "setting": "[1]", "value": "< 100", "unit": "nM"}]}
{"smiles": "COc1cc(C)[nH]c(=O)c1CNC(=O)c1c(C)n(C(C)C2CCNC(c3cccc(F)c3)C2)c2ccccc12", "note": "(stereo not shown) [Compound 65]", "values": [{"measurement": "IC50", "setting": "[2]", "value": "< 100", "unit": "nM"}]}
{"smiles": "CCC1CC(C(C)n2c(C)c(C(=O)NCc3c(C)cc(C)[nH]c3=O)c3ccccc32)CCN1CC(F)F", "note": "(stereo not shown) [Compound 67]", "values": [{"measurement": "IC50", "setting": "[1]", "value": "< 100", "unit": "nM"}]}
{"smiles": "Cc1cc(C)c(CNC(=O)c2c(C)n(C(C)C3CCN(CC(C)(F)F)C(C)C3)c3ccccc23)c(=O)[nH]1", "note": "(stereo not shown) [Compound 74]", "values": [{"measurement": "IC50", "setting": "[1]", "value": "< 100", "unit": "nM"}]}
{"smiles": "COc1cc(C)[nH]c(=O)c1CNC(=O)c1c(C)n(C(C)C2CCN(C(C)=O)C(CC(F)(F)F)C2)c2ccccc12", "note": "(stereo not shown) [Compound 75]", "values": [{"measurement": "IC50", "setting": "[2]", "value": "< 100", "unit": "nM"}]}
{"smiles": "COc1cc(C)[nH]c(=O)c1CNC(=O)c1c(C)n(C(C)C2CCNC(c3cccc(C(F)(F)F)c3)C2)c2ccccc12", "note": "(stereo not shown) [Compound 76]", "values": [{"measurement": "IC50", "setting": "[2]", "value": "< 100", "unit": "nM"}]}
{"smiles": "COc1cc(C)[nH]c(=O)c1CNC(=O)c1c(C)n(C(C)C2CCNC(c3cccc(C(F)(F)F)c3)C2)c2ccccc12", "note": "(stereo not shown) [Compound 77]", "values": [{"measurement": "IC50", "setting": "[2]", "value": "< 100", "unit": "nM"}]}
{"smiles": "COc1cc(C)[nH]c(=O)c1CNC(=O)c1c(C)n(C(C)C2CCN(C(C)=O)C(C)C2)c2ccccc12", "note": "(stereo not shown) [Compound 78]", "values": [{"measurement": "IC50", "setting": "[2]", "value": "< 100", "unit": "nM"}]}
{"smiles": "COC(=O)N1CCC(C(C)n2c(C)c(C(=O)NCc3c(OC)cc(C)[nH]c3=O)c3ccccc32)CC1C", "note": "(stereo not shown) [Compound 79]", "values": [{"measurement": "IC50", "setting": "[2]", "value": "< 100", "unit": "nM"}]}
{"smiles": "COc1cc(C)[nH]c(=O)c1CNC(=O)c1c(C)n(C(C)C2CCN(C(C)=O)C(CC(F)(F)F)C2)c2ccccc12", "note": "(stereo not shown) [Compound 80]", "values": [{"measurement": "IC50", "setting": "[2]", "value": "< 100", "unit": "nM"}]}
{"smiles": "COc1cc(C)[nH]c(=O)c1CNC(=O)c1c(C)n(C(C)C2CCN(C(C)=O)C(CC(F)(F)F)C2)c2ccccc12", "note": "(stereo not shown) [Compound 81]", "values": [{"measurement": "IC50", "setting": "[2]", "value": "< 100", "unit": "nM"}]}
{"smiles": "COC(=O)N1CCC(C(C)n2c(C)c(C(=O)NCc3c(OC)cc(C)[nH]c3=O)c3ccccc32)CC1C", "note": "(stereo not shown) [Compound 82]", "values": [{"measurement": "IC50", "setting": "[2]", "value": "100 to 1000", "unit": "nM"}]}
{"smiles": "Cc1cc(C)c(CNC(=O)c2c(C)n(C(C)C3CCNC(CC(F)(F)F)C3)c3ccccc23)c(=O)[nH]1", "note": "(stereo not shown) [Compound 83]", "values": [{"measurement": "IC50", "setting": "[1]", "value": "< 100", "unit": "nM"}]}
{"smiles": "Cc1cc(C)c(CNC(=O)c2c(C)n(C(C)C3CCNC(CC(F)(F)F)C3)c3ccccc23)c(=O)[nH]1", "note": "(stereo not shown) [Compound 85]", "values": [{"measurement": "IC50", "setting": "[3]", "value": "< 100", "unit": "nM"}]}
{"smiles": "Cc1cc(C)c(CNC(=O)c2c(C)n(C(C)C3CCNC(CC(F)(F)F)C3)c3ccccc23)c(=O)[nH]1", "note": "(stereo not shown) [Compound 86]", "values": [{"measurement": "IC50", "setting": "[3]", "value": "< 100", "unit": "nM"}]}
{"smiles": "COc1cc(C)[nH]c(=O)c1CNC(=O)c1c(C)n(C(C)C2CCNC(CC(F)(F)F)C2)c2ccccc12", "note": "(stereo not shown) [Compound 87]", "values": [{"measurement": "IC50", "setting": "[1]", "value": "100 to 1000", "unit": "nM"}]}
{"smiles": "CCS(=O)(=O)N1CCC(C(C)n2c(C)c(C(=O)NCc3c(OC)cc(C)[nH]c3=O)c3ccccc32)CC1C", "note": "(stereo not shown) [Compound 93]", "values": [{"measurement": "IC50", "setting": "[1]", "value": "100 to 1000", "unit": "nM"}]}
{"smiles": "CCS(=O)(=O)N1CCC(C(C)n2c(C)c(C(=O)NCc3c(OC)cc(C)[nH]c3=O)c3ccccc32)CC1C", "note": "(stereo not shown) [Compound 94]", "values": [{"measurement": "IC50", "setting": "[1]", "value": "100 to 1000", "unit": "nM"}]}
